Assay results reported in patent publication US20250388592A1 (REMYND N.V., priority 2022, published 2025).

Test system: M17_3TAU(P301L) cells
Test: TAU-induced cytotoxicity (LDH) in the neuroblastoma tauopathy model
Type: cell-based
Conditions: Homo sapiens, 168 h, inhibition of TAU-induced toxicity, 7 days retinoic acid differentiation, LDH readout
Summary of the method: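 Stably transfected BE-M17 cells expressing human TAU-P301L, seeded in serum-free detection medium, then differentiated with 2.5 μM RA (added in equal volume) for 7 days at 37° C/5% CO2 to induce TAU aggregation. Cytotoxicity = supernatant LDH increase over total LDH; EC50 from dose-dependent inhibition curves.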

`O=C(Cc1ccc(F)cc1)N1CC2(CN(CCc3cccc(F)c3)C2)C1` [Cpd B024, 2-(4-Fluoro-phenyl)-1-{6-[2-(3-fluoro-phenyl)-ethyl]-2,6-diaza-spiro[3.3]hept-2-yl}-ethanone] and `Cc1ccc(CCN2CC3(C2)CN(C(=O)Cc2ccc(F)cc2)C3)cc1` [Cpd B026, 2-(4-Fluoro-phenyl)-1-[6-(2-p-tolyl-ethyl)-2,6-diaza-spiro[3.3]hept-2-yl]-ethanone] are within 1.5-fold of each other in EC50: 26.7 nM for the first, 26.1 nM for the second.

Going from `Cc1cccnc1CN1CC2(C1)CN(C(=O)CC1CCCCC1)C2` [Cpd B082] to `Cc1cccnc1CN1CC2(C1)CN(C(=O)CC13CC(C1)C3)C2` [Cpd B408], the EC50 rises from 27.9 nM to 4000 nM (140-fold). The first is the more potent here.

First: Cc1nc(CN2CC3(C2)CN(C(=O)N(C)C2CCC(F)(F)CC2)C3)cs1 [Cpd B172]
Second: Cc1nc(CN2CC3(C2)CN(C(=O)CC2CCC(F)(F)CC2)C3)cs1 [Cpd B102]
The EC50 of the first is 3.9-fold higher: 102 nM for the first, 26.4 nM for the second. The second is the more potent here.

First: COC(=O)c1ccc(CC(=O)N2CC3(CN(Cc4ccc(F)cc4)C3)C2)cc1 [Cpd B428]
Second: Cc1ccc(CN2CC3(C2)CN(C(=O)Cc2ccc(F)cc2)C3)cc1 [Cpd B009, 2-(4-Fluoro-phenyl)-1-[6-(4-methyl-benzyl)-2,6-diaza-spiro[3.3]hept-2-yl]-ethanone]
The EC50 of the first is 730-fold higher: 778 nM for the first, 1.06 nM for the second. The second is the more potent here.

`O=C(NCC1CCC(F)(F)CC1)N1CC2(CN(Cc3ncccc3C(F)(F)F)C2)C1` [Cpd B197] and `O=C(NCC1CCC(F)(F)CC1)N1CC2(CN(Cc3ncccc3Cl)C2)C1` [Cpd B196] are within 1.5-fold of each other in EC50: 12.8 nM for the first, 12.5 nM for the second.

First: O=C(OC1CCC(F)(F)CC1)N1CC2(CN(Cc3ccc(F)cc3Cl)C2)C1 [Cpd B151]
Second: O=C(CC1CCC(F)(F)CC1)N1CC2(CN(Cc3ccc(F)cc3Cl)C2)C1 [Cpd B107]
The EC50 of the first is higher: 0.52 nM for the first, < 0.19 nM for the second. The second is the more potent here.

Going from `COc1cccc(CN2CC3(C2)CN(C(=O)NCc2cccc(C(F)(F)F)c2)C3)c1` [Cpd B173] to `COc1cccc(CN2CC3(C2)CN(C(=O)Nc2cccc(OC)c2)C3)c1` [Cpd B420], the EC50 rises from 30.3 nM to 1210 nM (40-fold).

Going from `Cc1nn(C)cc1CN1CC2(C1)CN(C(=O)NCc1ccc(F)cc1)C2` [Cpd B426] to `Cn1cc(Cl)c(CN2CC3(C2)CN(C(=O)NCc2ccc(F)cc2)C3)n1` [Cpd B444], the EC50 falls from 850 nM to 167 nM (5.1-fold). The second is the more potent here.

`Cc1nc(CN2CC3(C2)CN(S(=O)(=O)Cc2cccc(C(F)(F)F)c2)C3)cs1` [Cpd B215] and `O=C(Cc1cccc(C(F)(F)F)c1)N1CC2(CN(Cc3ccc(F)cc3)C2)C1` [Cpd B091] are within 1.5-fold of each other in EC50: 3.73 nM for the first, 4.56 nM for the second.

Compared with `CC(c1ccccc1)N1CC2(CN(C(=O)Cc3ccc(F)cc3)C2)C1` (stereo not drawn) [Cpd B016, 2-(4-Fluoro-phenyl)-1-[6-(1-phenyl-ethyl)-2,6-diaza-spiro[3.3]hept-2-yl]-ethanone], `O=C(Cc1ccc(F)cc1)N1CC2(CN(CCCc3ccccc3)C2)C1` [Cpd B001, 2-(4-fluorophenyl)-1-(6-(3-phenylpropyl)-2,6-diazaspiro[3.3]heptan-2-yl)ethanone] is 1.9-fold higher in EC50: 5.51 nM for the first, 10.7 nM for the second.

Going from `O=C(OC1CCC(F)(F)CC1)N1CC2(CN(Cc3ncccc3Cl)C2)C1` [Cpd B154] to `O=C(CC1CCC(F)(F)CC1)N1CC2(CN(Cc3ncccc3Cl)C2)C1` [Cpd B114], the EC50 rises from 7.81 nM to 13.6 nM (1.7-fold). The first is the more potent here.

`O=C(OC1CCC(F)(F)CC1)N1CC2(CN(Cc3ccc(F)cn3)C2)C1` [Cpd B153] and `O=C(CC1CCC(F)(F)CC1)N1CC2(CN(Cc3ccc(F)cn3)C2)C1` [Cpd B115] are within 1.5-fold of each other in EC50: 37.2 nM for the first, 41.3 nM for the second.

`O=C(N1CC2(CN(Cc3ccc(F)cc3)C2)C1)C(F)(F)c1ccc(F)cc1` [Cpd B099] and `O=C(COc1ccc(F)cc1)N1CC2(CN(Cc3ccc(F)cc3)C2)C1` [Cpd B098] are within 1.5-fold of each other in EC50: 86 nM for the first, 71.5 nM for the second.

Compared with `O=C(Cc1ccc(F)cc1)N1CC2(CN(CCc3ccccc3Cl)C2)C1` [Cpd B063, 1-{6-[2-(2-Chloro-phenyl)-ethyl]-2,6-diaza-spiro[3.3]hept-2-yl}-2-(4-fluoro-phenyl)-ethanone], `O=C(Cc1ccccc1F)N1CC2(CN(Cc3ccc(F)cc3)C2)C1` [Cpd B093] is 24-fold higher in EC50: 3.12 nM for the first, 74.6 nM for the second.

First: CCn1ccc(CN2CC3(C2)CN(C(=O)CC2CCC(F)(F)CC2)C3)n1 [Cpd B118]
Second: Cc1nc(CN2CC3(C2)CN(C(=O)CC2CCC(F)(F)CC2)C3)c[nH]1 [Cpd B125]
The EC50 of the first is 25-fold lower: 27.8 nM for the first, 705 nM for the second.

First: COc1ccccc1CCCN1CC2(C1)CN(C(=O)Cc1ccc(Cl)cc1)C2 [Cpd B058, 2-(4-chlorophenyl)-1-(6-(3-(2-methoxyphenyl)propyl)-2,6-diazaspiro[3.3]heptan-2-yl)ethanone]
Second: O=C(Cc1ccc(Cl)cc1)N1CC2(CN(CCc3ccccc3)C2)C1 [Cpd B052, 2-(4-chlorophenyl)-1-(6-phenethyl-2,6-diazaspiro[3.3]heptan-2-yl)ethanone]
The EC50 of the first is 9.2-fold lower: 1.72 nM for the first, 15.9 nM for the second.

First: Cc1cccnc1CN1CC2(C1)CN(S(=O)(=O)CCc1ccccc1)C2 [Cpd B211, 2-((3-methylpyridin-2-yl)methyl)-6-((phenethyl)sulfonyl)-2,6-diazaspiro[3.3]heptane]
Second: Cc1cccc(C(=O)N2CC3(CN(Cc4ncccc4C)C3)C2)c1 [Cpd B407]
The EC50 of the first is 45-fold lower: 94.8 nM for the first, 4310 nM for the second.

First: Cc1cccnc1CN1CC2(C1)CN(C(=O)NCc1ccc(F)cc1)C2 [Cpd B443]
Second: Cc1cccnc1CN1CC2(C1)CN(C(=O)C(F)(F)c1ccc(F)cc1)C2 [Cpd B087]
The EC50 of the first is 6-fold lower: 171 nM for the first, 1020 nM for the second.

Compared with `O=C(Cc1ccc(Cl)cc1)N1CC2(CN(CC3CCCCC3)C2)C1` [Cpd B056, 2-(4-chlorophenyl)-1-(6-(cyclohexylmethyl)-2,6-diazaspiro[3.3]heptan-2-yl)ethanone], `Cc1cc(CN2CC3(C2)CN(C(=O)Cc2ccc(Cl)cc2)C3)no1` [Cpd B041, 2-(4-chlorophenyl)-1-(6-((5-methylisoxazol-3-yl)methyl)-2,6-diazaspiro[3.3]heptan-2-yl)ethanone] is 98-fold higher in EC50: 1.44 nM for the first, 141 nM for the second.

Going from `O=C(CC1CCC(F)(F)CC1)N1CC2(CN(Cc3ccc(F)cc3C(F)(F)F)C2)C1` [Cpd B104, 2-(4,4-difluorocyclohexyl)-1-(6-(4-fluoro-2-(trifluoromethyl)benzyl)-2,6-diazaspiro[3.3]heptan-2-yl)ethan-1-one] to `O=C(CC1CCC(F)(F)CC1)N1CC2(CN(Cc3c(F)cccc3C(F)(F)F)C2)C1` [Cpd B110], the EC50 rises from 1.63 nM to 180 nM (110-fold). The first is the more potent here.

Compared with `COc1cccc(CNC2CC3(C2)CC(Nc2nc(Cc4ccc(Cl)cc4)ns2)C3)c1` (stereo not drawn) [Cpd B310, N-(3-(4-chlorobenzyl)-1,2,4-thiadiazol-5-yl)-N′-(3-methoxybenzyl) spiro[3.3]heptane-2,6-diamine], `Cc1ccc(CNC2CC3(C2)CC(Nc2nc(Cc4ccc(Cl)cc4)ns2)C3)c(C)c1` (stereo not drawn) [Cpd B319, N-(3-(4-chlorobenzyl)-1,2,4-thiadiazol-5-yl)-N′-(2,4-dimethylbenzyl) spiro[3.3]heptane-2,6-diamine] is 2.2-fold lower in EC50: 4.6 nM for the first, 2.1 nM for the second.

Going from `Cn1ncc(Cl)c1CN1CC2(C1)CN(C(=O)CC1CCC(F)(F)CC1)C2` [Cpd B438] to `Cc1c(CN2CC3(C2)CN(C(=O)CC2CCC(F)(F)CC2)C3)cnn1C` [Cpd B461], the EC50 falls from 317 nM to 56.5 nM (5.6-fold).

Compared with `O=C(Cc1ccc(F)cc1)N1CC2(CN(Cc3cccc(Cl)c3)C2)C1` [Cpd B011, 1-[6-(3-Chloro-benzyl)-2,6-diaza-spiro[3.3]hept-2-yl]-2-(4-fluoro-phenyl)-ethanone], `O=C(Cc1cccnc1)N1CC2(CN(Cc3ccc(F)cc3)C2)C1` [Cpd B409] is 1800-fold higher in EC50: 2.07 nM for the first, 3720 nM for the second. The first is the more potent here.

First: Cc1cc(CN2CC3(C2)CN(C(=O)Cc2ccc(F)cc2)C3)no1 [Cpd B021, 2-(4-Fluoro-phenyl)-1-[6-(5-methyl-isoxazol-3-ylmethyl)-2,6-diaza-spiro[3.3]hept-2-yl]-ethanone]
Second: Cc1ccccc1CC(=O)N1CC2(CN(Cc3ccc(F)cc3)C2)C1 [Cpd B439]
The EC50 of the first is 1.8-fold lower: 167 nM for the first, 295 nM for the second.

`Cc1ncc(CN2CC3(C2)CN(C(=O)CC2CCC(F)(F)CC2)C3)s1` [Cpd B456] and `Cc1nc(CN2CC3(C2)CN(C(=O)OCC2CCC(F)(F)CC2)C3)cs1` [Cpd B156] are within 1.5-fold of each other in EC50: 73.9 nM for the first, 83.3 nM for the second.

Going from `Cc1c(CN2CC3(C2)CN(C(=O)NCc2ccc(F)cc2)C3)cnn1C` [Cpd B413] to `Cc1csc(CN2CC3(C2)CN(C(=O)NCc2ccc(F)cc2)C3)c1` [Cpd B192], the EC50 falls from 2770 nM to 141 nM (20-fold).

Compared with `O=C(OC1CCC(F)(F)CC1)N1CC2(CN(Cc3ccccc3C(F)(F)F)C2)C1` [Cpd B147], `Cc1csc(CN2CC3(C2)CN(C(=O)OC2CCC(F)(F)CC2)C3)c1` [Cpd B146] is lower in EC50: 3.25 nM for the first, < 0.19 nM for the second. The second is the more potent here.

First: FC(F)(F)c1ccccc1CNC1CC2(C1)CC(Nc1nc(Cc3ccc(Cl)cc3)ns1)C2 (stereo not drawn) [Cpd B322, N-(3-(4-chlorobenzyl)-1,2,4-thiadiazol-5-yl)-N′-(2-(trifluoromethyl)benzyl) spiro[3.3]heptane-2,6-diamine]
Second: CS(=O)(=O)c1ccc(CNC2CC3(C2)CC(Nc2nc(Cc4ccc(Cl)cc4)ns2)C3)cc1 (stereo not drawn) [Cpd B331, N-(3-(4-chlorobenzyl)-1,2,4-thiadiazol-5-yl)-N′-(4-(methylsulfonyl)benzyl) spiro[3.3]heptane-2,6-diamine]
The EC50 of the first is 26-fold lower: 2.8 nM for the first, 73.3 nM for the second. The first is the more potent here.

Compared with `O=C(Cc1ccc(Cl)cc1)N1CC2(CN(Cc3ccc(F)c(F)c3)C2)C1` [Cpd B055, 2-(4-chlorophenyl)-1-(6-(3,4-difluorobenzyl)-2,6-diazaspiro[3.3]heptan-2-yl)ethanone], `Cc1cccc(CCN2CC3(C2)CN(C(=O)Cc2ccc(Cl)cc2)C3)c1` [Cpd B049, 2-(4-chlorophenyl)-1-(6-(3-methylphenethyl)-2,6-diazaspiro[3.3]heptan-2-yl)ethanone] is 2.4-fold higher in EC50: 5.13 nM for the first, 12.4 nM for the second.

Going from `O=C(OCC1CCOCC1)N1CC2(CN(Cc3ccc(F)cc3)C2)C1` [Cpd B128, (tetrahydro-2H-pyran-4-yl)methyl 6-(4-fluorobenzyl)-2,6-diazaspiro[3.3]heptane-2-carboxylate] to `COc1cccc(CN2CC3(C2)CN(C(=O)NC2CCCC2)C3)c1` [Cpd B183], the EC50 falls from 126 nM to < 0.19 nM. The second is the more potent here.

Going from `Cc1nc(CN2CC3(C2)CN(C(=O)NC2CCC(F)(F)CC2)C3)cs1` [Cpd B450] to `O=C(CC1CCC(F)(F)CC1)N1CC2(CN(Cc3ccccc3OC(F)F)C2)C1` [Cpd B111], the EC50 falls from 116 nM to 3.55 nM (33-fold). The second is the more potent here.

With `COc1cccc(CN2CC3(C2)CN(C(=O)Nc2ccc(Cl)cc2)C3)c1` [Cpd B185] the EC50 was 17.8 nM.
